Measurements published in patent US9863956B2, “Differentiation of isobaric amino acids and other species” (Agency for Science, Technology and Research, priority 2009, dated 2018).
Where no end group is shown, it is not given here.

What was measured:
[1] = target: bovine carbonic anhydrase (bCAII) (Bos taurus, UniProt P00921); assay: OBOC hexamer peptide library screening with Alexa Fluor 647 labeled bCAII, COPAS Plus bead sorting; type: binding; details: 50 nM dye labeled bCAII, 15 hr at 25° C.; on-bead peptide
Procedure: Alexa Fluor® 647 protein labeling kit (A20173, Invitrogen) was chosen as the reactive dye for labeling bovine carbonic anhydrase (bCAII) following the supplier's protocol. Briefly, 2 mg/mL of bCAII in 0.1 M sodium bicarbonate (pH ˜8.3) was transferred 0.5 mL of bCAII solution into the vial of the reactive dye, and the vial was capped and inverted several times to dissolve the dye completely. The reaction mixture was stirred for 1 hr at room temperature under dark conditions. The Alexa Fluro® 647 labeled bCAII (bCAII-A647) was purified from the mixture using the size exclusion purification resin in the kit. Purified and labeled bCAII-A647 was characterized by NanoDrop (Thermo Scientific) and gel documentation (Typhoon) after SDS-PAGE. […]
Hit beads were sorted into cone-shaped wells of a 96 well plate using a COPAS Plus. […] The gating region was defined for beads based on their time-of-flight (TOF) and red fluorescence, and the sorting region was chosen for selecting beads based on their time-of-flight (TOF) and uniformity red fluorescence after incubation with bCAII-A647. […] The TOF, red fluorescence, and red fluorescence peak height of the beads were detected using a red diode laser (λ=635 nm). Due to the auto-fluorescence of the beads, the argon ion laser was intentionally turned off to minimize bleed-through effect. […]

bCAII = bCAII (Bos taurus, UniProt P00921); assay: SPR affinity measurement (Biacore 3000) of peptide on immobilized bCAII; type: binding, bovine
Procedure: Affinity measurements were performed using a Biacore 3000 system (GE Heathcare) equipped with research grade CM5 sensor chips (GE Healthcare). The CM5 sensor chip was preconditioned after docking and priming the instrument with HBS-EP (GE Heathcare) buffer. Flow cell 1 (or 3) was used as a reference to subtract nonspecific binding, drift, and bulk refractive index. Using a flow rate of 20 microliters/min, the sensor chip's four flow cells were activated at 25° C. with a 7 min injection of amine-coupling kit (GE Healthcare) (1:1 mixture of 0.4 M EDC and 0.1 M NHS). To create a bCAII surface, 1 mg of bCAII was dissolved in 1 mL of 10 mM sodium acetate (pH 5.0) and injected across flow cell 2 only. Approximately 1000 response units (RU) of bCAII were immobilized onto this surface. Finally, 1.0 M ethanolamine (pH 8.5) was injected across the four flow cells for 4 min to deactivate the surfaces. After bCAII immobilization, the instrument was primed three times using running buffer (1×PBS+3% DMSO). HIRYKR (SEQ ID NO: 2) peptide (26.13 micrograms) was dissolved in 18 microliters DMSO and diluted with HBS-EP buffer to produce a 50 micromolar peptide stock solution. The peptide stock solution was serially diluted by a factor of 2 to a concentration of 390 nM. […]

Sequence of bovine carbonic anhydrase (bCAII) (P00921 whole entry): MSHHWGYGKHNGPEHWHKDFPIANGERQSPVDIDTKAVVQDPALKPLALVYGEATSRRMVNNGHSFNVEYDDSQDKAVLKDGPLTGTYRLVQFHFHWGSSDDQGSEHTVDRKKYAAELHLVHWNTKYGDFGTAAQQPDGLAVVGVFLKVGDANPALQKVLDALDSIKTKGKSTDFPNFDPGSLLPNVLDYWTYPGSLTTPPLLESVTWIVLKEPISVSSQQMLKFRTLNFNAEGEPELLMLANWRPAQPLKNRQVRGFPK
Sequence of bCAII (P00921 whole entry): as above

Row | hit in library screening against bCAII (bead fluorescence) [1] | dissociation constant (KD) (bCAII; 1:1 Langmuir binding fit, 25° C., peptide 50 micromolar to 390 nM) | binding affinity to the protein bCAII (bCAII; conclusion in words) | Substance
1 | hit peptide from the brightest bead | micromolar range | significant binding affinity | HIRYKR [hit hexamer peptide from OBOC library screened against bCAII, re-synthesized from Fmoc D-amino acids with a carboxamide C-terminus]
2 | hit peptide | – | – | IQHKRF (not fully specified (residues 1, 2, 3, 4, 5, 6, C-terminus); also: D-amino acids, which residues not given here)
